How the values were obtained:
[1] = Conversion of effective amount from mouse to human by conversion factor W; conditions: converted from the mouse amount with conversion factor W 0.11
Experimental: For example, when being administered into a mouse, an effective amount of SAC is at least approximately 25 mg/kg; more preferably, an effective amount of SAC is approximately from 25 mg/kg to 100 mg/kg. When being administered into a person, an effective amount of SAC is at least approximately 2.75 mg/kg; more preferably, an effective amount is approximately from 2.75 mg/kg to 11 mg/kg. The conversion of an effective amount from animal to animal can be easily calculated by those skilled in the art based on known knowledge. For example, when an effective amount per kg for animal A is known and an effective amount per kg for animal B is to be calculated, look up table 1 first to find the conversion factor (W), then calculate as follows: An effective amount for animal B (mg/kg)=W×an effective amount for animal A (mg/kg) For example, in one of the examples of this disclosure, an effective amount of SAC being administered into a mouse was 25 mg/kg, which needs to be converted into an effective amount for a human. Animal A is a mouse and animal B is a human, the crossing point which is the conversion factor W is 0.11, therefore an effective amount for a human is 0.11×25 mg/kg=2.75 mg/kg. [table]

IL-9 = test: Cytokines in nasal irrigation solution, allergic rhinitis animal model: IL-9; assay type: in vivo; conditions: BALB/c mice, in comparison with the disease group, increasing amount of SAC
Experimental: (§1) 3. All animals were sacrificed at the end of the 4th week after being given the tested material, their nasal cavities were rinsed 3 times with 1 ml of physiological saline solution, then nasal irrigation solution was collected, centrifuged at 1000 rpm for 5 minutes at 4° C. to collect the supernatant solution, then store at −80° C. for preservation.

allergic rhinitis = test: Allergic rhinitis animal model: frequency of sneezing and nasal rubbing; assay type: in vivo, Mice (BALB/c)
From the text: Drug Efficacy Evaluation for Allergic Rhinitis in Animals 1. Species: Mice. 2. Strain: BALB/c. 8. Number of animals: The animals were divided into 5 groups, 4 to 5 animals per group, a total of 24 animals. [table] 1. The frequency of sneezing and nasal rubbing of the mice was observed once per week.

IL-6 = test: Cytokines in nasal irrigation solution, allergic rhinitis animal model: IL-6; assay type: in vivo; conditions: BALB/c mice, in comparison with the disease group, increasing amount of SAC
Experimental: as §1

[2] = BALB/c mice, SAC 25, 50, 100 mpk p.o. twice per day, in comparison to the disease group

SMILES: C=CCSC[C@H](N)C(=O)O [SAC, S-allyl-L-Cysteine]
- effective amount for a human [1]: 2.75 mg/kg
- level of IL-9 in nasal irrigation solution (IL-9): decreased
- frequency of nasal rubbing (allergic rhinitis; [2]): tended to decline
- frequency of sneezing (allergic rhinitis; [2]): tended to decline
- effective amount administered into a mouse (allergic rhinitis; mouse, in one of the examples): 25 mg/kg
- level of IL-6 in nasal irrigation solution (IL-6): decreased

Source: patent US20180185312A1, “METHOD AND COMPOSITION FOR PREVENTING OR TREATING IMMUNE ALLERGIC AIRWAY DISEASE” (Development Center for Biotechnology, priority 2016, published 2018)
